From US12625150B2, “Treatment of, and differential diagnosis between, ACTH-dependent Cushing's syndrome and ACTH-independent Cushing's syndrome” (Corcept Therapeutics Incorporated, priority 2019, dated 2026)
Where “and” joins values, the source holds several entries; their conditions need not be identical. Equal values may be shown once.

What was measured:
[1] = system: serum ACTH and cortisol levels; test: Serum ACTH and cortisol levels and ACTH:cortisol ratio in Cushing's syndrome patients administered relacorilant; format: in vivo, human; settings: for change in ACTH:cortisol ratio following treatment: relacorilant 100-400 mg/day, six weeks
Description: Cushing's syndrome (CS) patients were examined and serum levels of ACTH and cortisol were measured in blood samples obtained from the patients. The serum ACTH and cortisol levels determined prior to administration of glucocorticoid receptor antagonist (GRA) therapy were used to calculate baseline ACTH:cortisol ratios (basal ACTH:cortisol ratios). […] The patients then received oral glucocorticoid receptor antagonist (GRA) therapy (either mifepristone or relacorilant, typically daily) for at least six weeks. The serum ACTH and cortisol levels determined after these six weeks of GRA therapy were used to calculate after-GRA ACTH:cortisol ratios. Three patients were treated with relacorilant (100 milligrams (mg) per day, titrated up to 400 mg per day, as tolerated; see Table 1). […] The results of these clinical measurements in Cushing's syndrome patients administered relacorilant (100 milligrams (mg) per day, titrated up to 400 mg per day, as tolerated) are presented in the Table 1: […]

[2] = system: serum ACTH and cortisol levels; test: Serum ACTH and cortisol levels and ACTH:cortisol ratio in Cushing's syndrome patients administered mifepristone; format: in vivo, human

Structure (SMILES) | change in ACTH:cortisol ratio following treatment ([1]; CS patient with pituitary tumor (ACTH-dependent Cushing's syndrome)) | Week 6 Serum Cortisol ([1]; adrenal CS patients (ACTH-independent), after six weeks of oral relacorilant 100 mg/day titrated up to 400 mg/day) | Baseline Serum Cortisol ([1]; adrenal CS patients (ACTH-independent), prior to relacorilant) | Week 6 Serum Cortisol ([1]; pituitary CS patient (ACTH-dependent), after six weeks of oral relacorilant 100 mg/day titrated up to 400 mg/day) [µg/dL] | Baseline Serum Cortisol ([1]; pituitary CS patient (ACTH-dependent), prior to relacorilant) [µg/dL] | Week 6 ACTH ([1]; pituitary CS patient (ACTH-dependent), serum, after six weeks of oral relacorilant 100 mg/day titrated up to 400 mg/day) [pg/mL] | Baseline ACTH ([1]; pituitary CS patient (ACTH-dependent), serum, prior to relacorilant) [pg/mL] | Post-Treatment Ratio (ACTH:cortisol) ([1]; pituitary CS patient, ACTH in pg/ml divided by cortisol in μg/dL, after six weeks of oral relacorilant 100-400 mg/day) | Baseline Ratio (ACTH:cortisol) ([1]; pituitary CS patient, ACTH in pg/ml divided by cortisol in μg/dL, prior to relacorilant) | change in ACTH:cortisol ratio following treatment ([1]; two CS patients with adrenal tumors (ACTH-independent Cushing's syndrome)) | Basal ACTH ([2]; individual patients with confirmed pituitary CS (ACTH dependent), serum, prior to mifepristone) | Day 14 Serum Cortisol ([2]; individual patients with confirmed pituitary CS, day 14 of oral mifepristone 300 mg/day titrated up to 900 mg/day) | Basal Serum Cortisol ([2]; individual patients with confirmed pituitary CS, prior to mifepristone) | Day 14 ACTH ([2]; individual patients with confirmed pituitary CS, serum, day 14 of oral mifepristone 300 mg/day titrated up to 900 mg/day) | Week 6 Basal ACTH ([2]; individual patients with confirmed pituitary CS, serum, week 6 of oral mifepristone 300 mg/day titrated up to 900 mg/day) | Week 6 Serum Cortisol ([2]; individual patients with confirmed pituitary CS, week 6 of oral mifepristone 300 mg/day titrated up to 900 mg/day)
Cn1cc(S(=O)(=O)N2CCC3=Cc4c(cnn4-c4ccc(F)cc4)C[C@]3(C(=O)c3cc(C(F)(F)F)ccn3)C2)cn1 [relacorilant, (R)-(1-(4-fluorophenyl)-6-((1-methyl-1H-pyrazol-4-yl)sulfonyl)-4,4a,5,6,7,8-hexahydro-1H-pyrazolo[3,4-g]isoquinolin-4a-yl)(4-(trifluoromethyl)pyridin-2-yl)methanone] | increased | 14.9 µg/dL and 17.1 µg/dL | 13.6 µg/dL and 16.2 µg/dL | 28.7 | 20.7 | 39.8 | 23.9 | 1.39 | 1.15 | decreased |  |  |  |  |  | 
CC#C[C@]1(O)CC[C@H]2[C@@H]3CCC4=CC(=O)CCC4=C3[C@@H](c3ccc(N(C)C)cc3)C[C@@]21C [mifepristone, 11β-(4-dimethylaminophenyl)-17β-hydroxy-17α-(1-propynyl)-estra-4,9-dien-3-one] |  |  |  |  |  |  |  |  |  |  | 16 pg/mL and 21 pg/mL and 20 pg/mL and 7 pg/mL and 15 pg/mL and 8 pg/mL | 486 nmol/L and 955 nmol/L and 914 nmol/L and 900 nmol/L and 809 nmol/L and 613 nmol/L | 337 nmol/L and 632 nmol/L and 734 nmol/L and 317 nmol/L and 494 nmol/L and 502 nmol/L | 34 pg/ml (2×) and 53 pg/ml and 21 pg/ml and 30 pg/ml and 22 pg/ml | 57 pg/mL and 52 pg/mL and 65 pg/mL and 24 pg/mL and 49 pg/mL and 20 pg/mL | 679 nmol/L and 999 nmol/L and 1151 nmol/L and 955 nmol/L and 731 nmol/L and 654 nmol/L
